This assay addresses somatostatin type 2 (SSTR2) receptors (Homo sapiens, UniProt P30874). In words: PathHunter β-Arrestin assay, antagonist mode, SSTR2. Type of assay: cell-based. The settings on record: agonist challenge at EC80. As to the method:
The PathHunter® β-Arrestin assay monitors the activation of a GPCR in a homogenous, non-imaging assay format using a technology developed by DiscoveRx called Enzyme Fragment Complementation (EFC) with β-galactosidase (β-Gal) as the functional reporter. […] EA is fused to β-Arrestin and […] is fused to the GPCR of interest. When the GPCR is activated and β-Arrestin is recruited to the receptor, ED and EA complementation occurs, restoring β-Gal activity which is measured using chemiluminescent PathHunter® Detection Reagents. For antagonist determination, cells were pre-incubated with the compounds followed by agonist challenge at the EC80 concentration. Data was normalized to the maximal and minimal response observed in the presence of EC80 ligand and vehicle. Compound activity was analyzed using CBIS data analysis suite ChemInnovation, CA). Percentage inhibition was calculated using the following formula: % Inhibition=100%×(1−(mean signal of test sample-mean signal of vehicle control)/(mean signal of EC80 control-mean signal of vehicle control)). Percentage inhibition was calculated at 10 concentrations in steps on a Log 3 scale ranging from […] to 5e-5 μM. The results were plotted for IC50 calculation.

The structures appear in SMILES notation. *1 amine or outer side, *2 acyl side, *3 side chain or, on linkers, in order; H or OH if unused. Where a SMILES comes first, the peptide text is derived from it. Bridges are numbered along the chain shown (N, C = ends). Triazole bridges read from a SMILES are 1,4-linked. [ ]: non-standard residue; d: D form. The star is where a group is joined. ξ: configuration not given here. dPhe(4-CONH2) = NC(=O)c1ccc(C[C@@H](N)C(=O)O)cc1; NMePhe(4-Cl) = CN[C@@H](Cc1ccc(Cl)cc1)C(=O)O; dPhe(4-CN) = N#Cc1ccc(C[C@@H](N)C(=O)O)cc1; Phe(4-Cl) = N[C@@H](Cc1ccc(Cl)cc1)C(=O)O; dDap(N3) = [N-]=[N+]=NC[C@@H](N)C(=O)O; ξPhe(4-Cl) = NC(Cc1ccc(Cl)cc1)C(=O)O; NMeY = CN[C@@H](Cc1ccc(O)cc1)C(=O)O; dNMeY = CN[C@H](Cc1ccc(O)cc1)C(=O)O; Lys(Me2) = CN(C)CCCC[C@H](N)C(=O)O; NMeT = CN[C@H](C(=O)O)[C@@H](C)O; Lys(Me) = CNCCCC[C@H](N)C(=O)O; Thr(3ξ) = CC(O)[C@H](N)C(=O)O; ξY = NC(Cc1ccc(O)cc1)C(=O)O; dNMeC = CN[C@H](CS)C(=O)O; MeOSuc = COC(=O)CCC(=O)*; Pra = C#CC[C@H](N)C(=O)O; Dap = NC[C@H](N)C(=O)O; CO = O=C([*:1])[*:2]

Sequence of somatostatin type 2 (SSTR2) receptors (P30874 whole entry, the tested form may be a part): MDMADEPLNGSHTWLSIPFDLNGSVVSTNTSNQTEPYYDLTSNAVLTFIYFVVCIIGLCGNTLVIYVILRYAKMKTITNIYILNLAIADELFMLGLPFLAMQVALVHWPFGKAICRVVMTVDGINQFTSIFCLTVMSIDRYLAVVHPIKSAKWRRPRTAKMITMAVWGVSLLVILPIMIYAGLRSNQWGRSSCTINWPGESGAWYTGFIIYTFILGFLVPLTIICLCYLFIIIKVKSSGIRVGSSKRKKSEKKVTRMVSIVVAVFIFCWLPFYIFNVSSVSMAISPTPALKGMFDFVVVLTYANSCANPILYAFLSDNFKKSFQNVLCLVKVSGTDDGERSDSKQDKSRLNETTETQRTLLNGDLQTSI

Compound `CNCCCC[C@@H]1NC(=O)[C@@H](Cc2ccc(C(N)=O)cc2)NC(=O)[C@H](Cc2ccc(O)cc2)NC(=O)[C@H](NC(=O)[C@@H](N)Cc2ccc(Cl)cc2)CSC(=O)NC[C@@H](C(=O)N[C@H](Cc2ccc(O)cc2)C(N)=O)NC(=O)[C@H](C(C)O)NC1=O` (stereo partly drawn) [Compound 63, H-Cpa-cyclo [DCys-Tyr-DPhe (4-CONH2)- Lys(Me)-Thr-Dap]- DTyr-NH2] (H-[Phe(4-Cl)][dC]Y[dPhe(4-CONH2)][Lys(Me)][Thr(3ξ)][Dap][dY]-NH2; linker 2-7 via CO) returned a concentration for half-maximal inhibition (IC50) of more than 1000 nM.

As for `C[C@@H](O)[C@@H]1NC(=O)[C@H](CCCCN)NC(=O)[C@@H](Cc2ccc(C#N)cc2)NC(=O)[C@H](Cc2ccc(O)cc2)NC(=O)[C@H](NC(=O)[C@@H](N)Cc2ccc(Cl)cc2)CSSC[C@@H](C(=O)N[C@H](Cc2ccc(O)cc2)C(N)=O)NC1=O` [Compound 59, H-Cpa-[DCys- Tyr-DPhe(4-CN)- Lys-Thr-Cys]- DTyr-NH2] (H-[Phe(4-Cl)][dC]Y[dPhe(4-CN)]KTC[dY]-NH2; disulfide 2-7), the IC50 was found to be 39.1 nM.

In the case of `C[C@@H](O)[C@H]1C(=O)N[C@H](C(=O)N[C@H](Cc2ccc(O)cc2)C(N)=O)CSSC[C@@H](NC(=O)[C@@H](N)Cc2ccc(Cl)cc2)C(=O)N(C)[C@@H](Cc2ccc(O)cc2)C(=O)N[C@H](Cc2ccc(C(N)=O)cc2)C(=O)N[C@@H](CCCCN)C(=O)N1C` [Compound 75, H-Cpa-[DCys-NMeTyr-DPhe(4-carbamoyl)-Lys-NMeThr-Cys]-DTyr-NH2] (H-[Phe(4-Cl)][dC][NMeY][dPhe(4-CONH2)]K[NMeT]C[dY]-NH2; disulfide 2-7), the 50% inhibitory concentration (IC50) is more than 1000 nM.

As to `COc1ccc(CC(NC(=O)[C@@H]2CSSC[C@@H](NC(=O)[C@@H](N)Cc3ccc(Cl)cc3)C(=O)N[C@@H](Cc3ccc(O)cc3)C(=O)N[C@H](Cc3ccc(C(N)=O)cc3)C(=O)N[C@@H](CCCCN)C(=O)N[C@@H]([C@@H](C)O)C(=O)N2)C(N)=O)cc1` (stereo partly drawn) [Compound 44, H-Cpa-cyclo[DCys- Tyr-D-(4- carbamoyl)Phe-Lys- Thr-Cys]-4-OMe-D- Phe-NH2] (H-[Phe(4-Cl)][dC]Y[dPhe(4-CONH2)]KTC[ξY](Me)-NH2; disulfide 2-7), the IC50 was determined as 10.7 nM.

The compound `C[C@@H](O)[C@@H]1NC(=O)[C@H](CCCCN)NC(=O)[C@@H](Cc2ccc(C(N)=O)cc2)NC(=O)[C@H](Cc2ccc(O)cc2)NC(=O)[C@H](N(C)C(=O)[C@@H](N)Cc2ccc(Cl)cc2)CSSC[C@@H](C(=O)N[C@H](Cc2ccc(O)cc2)C(N)=O)NC1=O` [Compound 78, H-Cpa- [NMeDCys- Tyr-DPhe (4-carbamoyl)- Lys-Thr-Cys]- DTyr-NH2] (H-[Phe(4-Cl)][dNMeC]Y[dPhe(4-CONH2)]KTC[dY]-NH2; disulfide 2-7) had an IC50 of 6.79 nM.

The compound `C[C@@H](O)[C@@H]1NC(=O)[C@H](CCCCN)NC(=O)[C@@H](Cc2ccc(C(N)=O)cc2)NC(=O)[C@H](Cc2ccc(O)cc2)NC(=O)[C@H](NC(=O)[C@@H](N)Cc2ccc(Cl)cc2)CC=CC[C@@H](C(=O)N[C@H](Cc2ccc(O)cc2)C(N)=O)NC1=O` [Compound 67] returned a 50% inhibitory concentration (IC50) of more than 1000 nM.

Compound `CC(O)[C@@H]1NC(=O)[C@H](CCCCN)NC(=O)[C@@H](Cc2ccc(C(N)=O)cc2)NC(=O)[C@H](Cc2ccc(O)cc2)NC(=O)[C@H](NC(=O)[C@@H](N)Cc2ccc(Cl)cc2)CSC(=O)NC[C@@H](C(=O)N[C@H](Cc2ccc(O)cc2)C(N)=O)NC1=O` (stereo partly drawn) [Compound 62, H-Cpa-cyclo[DCys- Tyr-DPhe(4- CONH2)- Lys-Thr-Dap]- DTyr-NH2] (H-[Phe(4-Cl)][dC]Y[dPhe(4-CONH2)]K[Thr(3ξ)][Dap][dY]-NH2; linker 2-7 via CO) displayed an IC50 of more than 1000 nM.

In the case of `CNCCCC[C@@H]1NC(=O)[C@@H](Cc2ccc(C(N)=O)cc2)NC(=O)[C@H](Cc2ccc(Cl)cc2)NC(=O)[C@H](NC(=O)[C@@H](N)Cc2ccc(Cl)cc2)CSSC[C@@H](C(=O)NC(Cc2ccc(Cl)cc2)C(N)=O)NC(=O)[C@H]([C@@H](C)O)NC1=O` (stereo partly drawn) [Compound 47, H-Cpa-cyclo[D-Cys-Cpa-D-Phe(4-carbamoyl)-Lys(N^ε-Me)-Thr-Cys]-D-Cpa-NH2] (H-[Phe(4-Cl)][dC][Phe(4-Cl)][dPhe(4-CONH2)][Lys(Me)]TC[ξPhe(4-Cl)]-NH2; disulfide 2-7), the IC50 is 1.51 nM.

Take `C[C@@H](O)[C@@H]1NC(=O)[C@H](CCCCN)NC(=O)[C@@H](Cc2ccc(C(N)=O)cc2)NC(=O)[C@H](Cc2ccc(O)cc2)NC(=O)[C@H](NC(=O)[C@@H](N)Cc2ccc(Cl)cc2)CSSC[C@@H](C(=O)N(C)[C@H](Cc2ccc(O)cc2)C(N)=O)NC1=O` [Compound 79, H-Cpa-[DCys- Tyr-DPhe(4- carbamoyl)-Lys- Thr-Cys]- NMeDTyr-NH2] (H-[Phe(4-Cl)][dC]Y[dPhe(4-CONH2)]KTC[dNMeY]-NH2; disulfide 2-7): the IC50 turned out to be 28.7 nM.

With `CN[C@@H](Cc1ccc(Cl)cc1)C(=O)N[C@@H]1CSSC[C@@H](C(=O)N(C)[C@H](Cc2ccc(O)cc2)C(N)=O)NC(=O)[C@H]([C@@H](C)O)N(C)C(=O)[C@H](CCCCN)NC(=O)[C@@H](Cc2ccc(C(N)=O)cc2)NC(=O)[C@H](Cc2ccc(O)cc2)N(C)C1=O` [Compound 80, H-NMeCpa-[DCys-NMeTyr-DPhe(4-carbamoyl)-Lys-NMeThr-Cys]-NMeTyr-NH2] (H-[NMePhe(4-Cl)][dC][NMeY][dPhe(4-CONH2)]K[NMeT]C[dNMeY]-NH2; disulfide 2-7), the half-inhibitory concentration (IC50) was more than 1000 nM.

In the case of `COc1ccc(CC(NC(=O)[C@@H]2CSSC[C@@H](NC(=O)[C@@H](N)Cc3ccc(Cl)cc3)C(=O)N[C@@H](Cc3ccc(OC)cc3)C(=O)N[C@H](Cc3ccc(C(N)=O)cc3)C(=O)N[C@@H](CCCCN)C(=O)N[C@@H]([C@@H](C)O)C(=O)N2)C(N)=O)cc1` (stereo partly drawn) [Compound 45, H-Cpa-cyclo[DCys- 4-OMe-Phe-D-(4- carbamoyl)Phe-Lys- Thr-Cys]-4-OMe-D- Phe-NH2] (H-[Phe(4-Cl)][dC]Y(Me)[dPhe(4-CONH2)]KTC[ξY](Me)-NH2; disulfide 2-7), the concentration for half-maximal inhibition (IC50) was 14.6 nM.

Compound `C[C@@H](O)[C@@H]1NC(=O)[C@H](CCCCN(C)C)NC(=O)[C@@H](Cc2ccc(C(N)=O)cc2)NC(=O)[C@H](Cc2ccc(O)cc2)NC(=O)[C@H](NC(=O)[C@@H](N)Cc2ccc(Cl)cc2)CSSC[C@@H](C(=O)NC(Cc2ccc(O)cc2)C(N)=O)NC1=O` (stereo partly drawn) [Compound 32, H-Cpa-cyclo[D-Cys-Tyr-D-Phe(4-carbamoyl)-Lys(N^ε-diMe)-Thr-Cys]-D-Tyr-NH2] (H-[Phe(4-Cl)][dC]Y[dPhe(4-CONH2)][Lys(Me2)]TC[ξY]-NH2; disulfide 2-7) gave an IC50 of 2.46 nM.

The compound `CNCCCC[C@@H]1NC(=O)[C@@H](Cc2ccc(C(N)=O)cc2)NC(=O)[C@H](Cc2ccc(O)cc2)NC(=O)[C@H](NC(=O)[C@H](Cc2ccc(Cl)cc2)NC(=O)CNC(C)=O)CSSC[C@@H](C(=O)N[C@H](Cc2ccc(O)cc2)C(N)=O)NC(=O)[C@H]([C@@H](C)O)NC1=O` [Compound 55, Ac-Gly-Cpa-cyclo[D-Cys-Tyr-D-Phe(4-carbamoyl)-Lys(N^ε-Me)-Thr-Cys]-D-Tyr-NH2] (Ac-G[Phe(4-Cl)][dC]Y[dPhe(4-CONH2)][Lys(Me)]TC[dY]-NH2; disulfide 3-8) registered an IC50 of 3.35 nM.

Compound `C[C@@H](O)[C@@H]1NC(=O)[C@H](CCCCN)NC(=O)[C@@H](Cc2ccc(C(N)=O)cc2)NC(=O)[C@H](Cc2ccc(Cl)cc2)NC(=O)[C@H](NC(=O)[C@@H](N)Cc2ccc(Cl)cc2)CSSC[C@@H](C(=O)NC(Cc2ccc(O)cc2)C(N)=O)NC1=O` (stereo partly drawn) [Compound 36, H-Cpa-cyclo[DCys- Cpa-D-(4- carbamoyl)Phe-Lys- Thr-Cys]-DTyr-NH2] (H-[Phe(4-Cl)][dC][Phe(4-Cl)][dPhe(4-CONH2)]KTC[ξY]-NH2; disulfide 2-7) displayed an IC50 of 28.7 nM.

`CC(C)[C@@H]1NC(=O)[C@H](CCCCN)NC(=O)[C@@H](Cc2ccc(C(N)=O)cc2)NC(=O)[C@H](Cc2ccc(O)cc2)NC(=O)[C@H](NC(=O)[C@@H](N)Cc2ccc(Cl)cc2)CSSC[C@@H](C(=O)NC(Cc2ccc(O)cc2)C(N)=O)NC1=O` (stereo partly drawn) [Compound 33, H-Cpa-cyclo[DCys- Tyr-D-4- (carbamoyl)Phe-Lys- Val-Cys]-DTyr-NH2] (H-[Phe(4-Cl)][dC]Y[dPhe(4-CONH2)]KVC[ξY]-NH2; disulfide 2-7) yielded a 50% inhibitory concentration (IC50) of 56 nM.

In the case of `CN[C@@H](Cc1ccc(Cl)cc1)C(=O)N[C@@H]1CSSC[C@@H](C(=O)N[C@H](Cc2ccc(O)cc2)C(N)=O)NC(=O)[C@H]([C@@H](C)O)NC(=O)[C@H](CCCCN)NC(=O)[C@@H](Cc2ccc(C(N)=O)cc2)NC(=O)[C@H](Cc2ccc(O)cc2)NC1=O` [Compound 77, H—(N-Me)Cpa-cyclo[D-Cys-Tyr-D-Phe(4-carbamoyl)-Lys-Thr-Cys]-D-Tyr-NH2] (H-[NMePhe(4-Cl)][dC]Y[dPhe(4-CONH2)]KTC[dY]-NH2; disulfide 2-7), the IC50 was 2.25 nM.

For `CNCCCC[C@@H]1NC(=O)[C@@H](Cc2ccc(C(N)=O)cc2)NC(=O)[C@H](Cc2ccc(O)cc2)NC(=O)[C@H](NC(=O)[C@H](Cc2ccc(Cl)cc2)NC(=O)CCC(=O)OC)CSSC[C@@H](C(=O)N[C@H](Cc2ccc(O)cc2)C(N)=O)NC(=O)[C@H]([C@@H](C)O)NC1=O` [Compound 58, CH3O2C(CH2)2(CO)-Cpa-cyclo[D-Cys-Tyr-D-Phe(4-carbamoyl)-Lys(N^ε-Me)-Thr-Cys]-D-Tyr-NH2] (MeOSuc-[Phe(4-Cl)][dC]Y[dPhe(4-CONH2)][Lys(Me)]TC[dY]-NH2; disulfide 2-7), the half-inhibitory concentration (IC50) came to 2.36 nM.

With `C[C@@H](O)[C@@H]1NC(=O)[C@H](CCCCN)NC(=O)[C@@H](Cc2ccc(C(N)=O)cc2)NC(=O)[C@H](Cc2ccc(O)cc2)NC(=O)[C@H](NC(=O)[C@@H](N)Cc2ccc(Cl)cc2)Cn2cc(nn2)C[C@@H](C(=O)N[C@H](Cc2ccc(O)cc2)C(N)=O)NC1=O` [Compound 64] (H-[Phe(4-Cl)][dDap(N3)]Y[dPhe(4-CONH2)]KT[Pra][dY]-NH2; triazole 2-7), the half-maximal inhibitory concentration (IC50) was more than 1000 nM.

Usually IC50 stands for the concentration needed to halve the response being measured. Higher therefore signals weaker potency in that assay.

The values above are taken from US12486302B2, “Somatostatin receptor antagonist compounds and methods of using the same” (CDRD VENTURES INC., priority 2016, dated 2025).
